Results published in the supplement of paper PMC7224384.

How the values were obtained:
MDA-MB-453 [1] = assay: drug sensitivity score (DSS), single agent (DSS (weighted AUC score)); higher = more sensitive (stronger viability decrease); extreme values may be limits of the assay; details: BLU9931 0 nM; 72 h
Method in brief: (§1)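 Each 384-well plate held compounds from the FIMM Oncology set, predispensed in singlicate at five 10-fold dilutions spanning a 10,000-fold range, and each well then received 2000 MDA-MB-453 cells in medium with or without an FGFR4 inhibitor at 100 nM final. Plates stayed at 37 °C, 5% CO2 for 72 h, after which cellular ATP was measured with CellTiterGlo 2.0. Readings were converted per plate into percent viability against control wells, and the drug sensitivity score was taken as a weighted area under a four-parameter logistic fit.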

MDA-MB-453 [2] = assay: drug sensitivity score (DSS), in combination with BLU9931 (DSS (weighted AUC score)); higher = more sensitive (stronger viability decrease); extreme values may be limits of the assay; details: BLU9931 100 nM; 72 h
Method in brief: as §1

Row | SMILES | drug sensitivity score (MDA-MB-453 [1]) | drug sensitivity score (MDA-MB-453 [2])
1 | CO[C@@]12[C@H](COC(N)=O)C3=C(C(=O)C(C)=C(N)C3=O)N1C[C@@H]1N[C@@H]12 [Mitomycin C] | 0 | 0
2 | Clc1ccc(C(c2ccccc2Cl)C(Cl)Cl)cc1 (centres undefined) [Mitotane] | 0.6 | 0
3 | O=C1c2c(O)ccc(O)c2C(=O)c2c(NCCNCCO)ccc(NCCNCCO)c21 [Mitoxantrone] | 4.5 | 5.1
4 | CCS(=O)(=O)Nc1ccc(Oc2ccc(F)cc2F)c(-c2cn(C)c(=O)c3[nH]ccc23)c1 [Mivebresib] | 29.9 | 31.1
5 | Nc1ccccc1NC(=O)c1ccc(CNc2nccc(-c3cccnc3)n2)cc1 [Mocetinostat] | 16 | 17.7
6 | CCNC(=O)C[C@@H]1N=C(c2ccc(Cl)cc2)c2cc(OC)ccc2-n2c(C)nnc21 [Molibresib] | 10 | 9.8
7 | N#CCNC(=O)c1ccc(-c2ccnc(Nc3ccc(N4CCOCC4)cc3)n2)cc1 [Momelotinib] | 4.7 | 2.2
8 | CC1(C)CNc2cc(NC(=O)c3cccnc3NCc3ccncc3)ccc21 [Motesanib] | 1 | 0.3
9 | CCCN(CCC)C(=O)C1=Cc2ccc(-c3ccc(C(=O)N4CCCC4)cc3)cc2N=C(N)C1 [Motolimod] | 0.1 | 0
10 | FC(F)(F)c1ccc(/C=C/c2nc(COc3ccc(CCCCn4ccnn4)cc3)co2)cc1 [Mubritinib] | 7.8 | 4
11 | Cc1cc(OCc2nnc(SC3CCCC3)n2-c2cccnc2)ccc1-c1ccc(S(C)(=O)=O)cc1 [NMS-873] | 11.4 | 9.1
12 | COc1ccc(-c2ccc3ncc4c(c3c2)n(-c2ccc(N3CCNCC3)c(C(F)(F)F)c2)c(=O)n4C)cn1 [NVP-BGT226] | 24.8 | 24.4
13 | Cc1ccc(C(=O)Nc2cccc(C(F)(F)F)c2)cc1Nc1nc(-c2cccnc2)nc2c1cnn2C [NVP-BHG712] | 1.9 | 1.2
14 | COc1cc2c(cc1OC(C)C)[C@H](c1ccc(Cl)cc1)N(c1ccc(N(C)C[C@H]3CC[C@H](N4CCN(C)C(=O)C4)CC3)cc1)C(=O)C2 [NVP-CGM097] | 7.9 | 8.5
15 | CN[C@@H](C)C(=O)N[C@H](C(=O)N1CCC[C@H]1c1nc(C(=O)c2ccc(F)cc2)cs1)C1CCCCC1 [NVP-LCL161] | 8 | 8.1
16 | Cn1c(Nc2ccc(C(F)(F)F)cc2)nc2cc(Oc3ccnc(-c4ncc(C(F)(F)F)[nH]4)c3)ccc21 [NVP-RAF265] | 1.7 | 1.1
17 | CC(=O)c1cc2c(o1)C(=O)c1ccccc1C2=O [Napabucasin] | 0 | 0
18 | CC1(C)CCC(c2ccc(Cl)cc2)=C(CN2CCN(c3ccc(C(=O)NS(=O)(=O)c4ccc(N[C@H](CCN5CCOCC5)CSc5ccccc5)c(S(=O)(=O)C(F)(F)F)c4)cc3)CC2)C1 [Navitoclax] | 0.3 | 2.4
19 | CN1C(=O)N[C@H](Cc2c[nH]c3c(Cl)cccc23)C1=O [Necrostatin 2] | 0 | 0
20 | O=c1ncn2nc(Sc3ccc(F)cc3F)ccc2c1-c1c(Cl)cccc1Cl [Neflamapimod] | 0 | 0
21 | COc1nc(N)nc2c1ncn2[C@@H]1O[C@H](CO)[C@@H](O)[C@@H]1O [Nelarabine] | 1.3 | 1.5

Row | SMILES | drug sensitivity score (MDA-MB-453 [1]) | drug sensitivity score (MDA-MB-453 [2])
22 | CCOc1cc2ncc(C#N)c(Nc3ccc(OCc4ccccn4)c(Cl)c3)c2cc1NC(=O)/C=C/CN(C)C [Neratinib] | 15.4 | 17.9
23 | Cc1cn(-c2cc(NC(=O)c3ccc(C)c(Nc4nccc(-c5cccnc5)n4)c3)cc(C(F)(F)F)c2)cn1 [Nilotinib] | 1.7 | 1.5
24 | CC1(C)NC(=O)N(c2ccc([N+](=O)[O-])c(C(F)(F)F)c2)C1=O [Nilutamide] | 0 | 0
25 | COC(=O)c1ccc2c(c1)NC(=O)/C2=C(\Nc1ccc(N(C)C(=O)CN2CCN(C)CC2)cc1)c1ccccc1 [Nintedanib] | 4.7 | 1.9
26 | NC(=O)c1cccc2cn(-c3ccc([C@@H]4CCCNC4)cc3)nc12 [Niraparib] | 2.3 | 1.3
27 | CC(O)c1cc(C(=O)N[C@@H](C)Cn2ccc(-c3ccc(C#N)c(Cl)c3)n2)n[nH]1 (some centres undefined) [ODM-201] | 1.1 | 0.3
28 | CC(=O)c1cnc2ccc(-c3cc(Cl)c(O)c(Cl)c3)nc2c1N[C@H]1CC[C@H](CN(C)C)CC1 [OTS167] | 17.4 | 15.9
29 | O=C(c1cc(Cc2n[nH]c(=O)c3ccccc23)ccc1F)N1CCN(C(=O)C2CC2)CC1 [Olaparib] | 1.7 | 0.5
30 | C=CC(=O)Nc1cccc(Oc2nc(Nc3ccc(N4CCN(C)CC4)cc3)nc3ccsc23)c1 [Olmutinib] | 0.7 | 0.7
31 | COC(=O)C[C@](O)(CCCC(C)(C)O)C(=O)O[C@@H]1C(OC)=C[C@]23CCCN2CCc2cc4c(cc2[C@H]13)OCO4 [Omacetaxine] | 22.1 | 20.5
32 | CC1(C)CC[C@]2(NC(=O)C(C)(F)F)CC[C@]3(C)[C@H](C(=O)C=C4[C@@]5(C)C=C(C#N)C(=O)C(C)(C)[C@@H]5CC[C@]43C)[C@@H]2C1 [Omaveloxolone] | 14.3 | 13.5
33 | COc1ncc(-c2ccc3nccc(-c4ccnnc4)c3c2)cc1NS(=O)(=O)c1ccc(F)cc1F [Omipalisib] | 23 | 25.1
34 | CC(C)c1cc(C(=O)N2Cc3ccc(CN4CCN(C)CC4)cc3C2)c(O)cc1O [Onalespib] | 17 | 16.4
35 | COC[C@H](NC(=O)c1cnc(C)s1)C(=O)N[C@@H](COC)C(=O)N[C@@H](Cc1ccccc1)C(=O)[C@@]1(C)CO1 [Oprozomib] | 14.8 | 12.3
36 | CNC(=O)c1ccc2cc([C@@]3(O)CCn4cncc43)ccc2c1 [Orteronel] | 0 | 0
37 | C=CC(=O)Nc1cc(Nc2nccc(-c3cn(C)c4ccccc34)n2)c(OC)cc1N(C)CCN(C)C [Osimertinib] | 8 | 10.4
38 | O=C(O)C(=O)O.[NH-][C@@H]1CCCC[C@H]1[NH-].[Pt+2] [Oxaliplatin] | 8.2 | 7
39 | C=CCc1cccc(/C=N/NC(=O)CN2CCN(Cc3ccccc3)CC2)c1O [PAC-1] | 4.4 | 4.9
40 | O=C(Nc1cccnc1)N1CCC(Cc2cccc(Oc3ccc(C(F)(F)F)cn3)c2)CC1 [PF-3845] | 1.8 | 2.2
41 | COc1ccccc1S(=O)(=O)Nc1ccc2c(c1)CN(C)C(=O)N2 [PFI-1] | 8.2 | 8.4
42 | CN1CCN(c2cc(C(=O)Nc3ccc4c(c3)-c3c(c(C(N)=O)nn3-c3ccc(F)cc3)CC4)c(Cl)cn2)CC1 [PHA 408] | 4.9 | 3.4
